Measurements from US10835564B2, “Composition for preventing and treating premature ovarian failure, containing Evodia rutaecarpa bentham extract having protective activity against ovotoxicity” (DONGGUK UNIVERSITY GYEONGJU CAMPUS INDUSTRY-ACADEMY …, priority 2015, dated 2020).
pIC50: −log10 of the molar value.

System: CHO-K1 cells
Assay: MTT assay, cytotoxicity against CHO-K1 cells
Type: cell-based, hamster
Conditions: 24 hours, FIG. 4, read-out: concentration at which the viability of CHO-K1 cells became about 50%
Description: The cell viability was analyzed by a 3-(4,5-dimethylthiazol)-2,5-diphenyltetrazolium bromide (MTT) assay method. After CHO-K1 cells at 2×10^4 cells/well were cultured in a 48-well plate and then serum starved for 4 hours, VCD was treated at various concentrations or the respective medicines were pre-treated at 100 μg/ml, VCD (1.5 mM) was sequentially treated, and the cells were cultured under the conditions of 37° C. and 5% CO2 for 24 hours. After 30 μl of an MTT solution (2 mg/ml) per well was added thereto and the resulting mixture was allowed to react in an incubator at 37° C. and 5% CO2 for 3 hours, the MTT solution and the culture solution were completely removed, and then formazan crystallites formed in the cells were dissolved by using 150 μl of dimethyl sulfoxide (DMSO, Sigma-Aldrich, USA), and the absorbance thereof was measured at 595 nm by using an ELISA plate reader (DYNEX, Opsys MR, USA). The cell viability for the control was expressed as a percentage.
The cytotoxicity of VCD against CHO-K1 cells was evaluated by the MTT assay according to Example 1-4, and as a result, the concentration (1.5 mM) at which the viability of CHO-K1 cells by VCD became about 50% was determined (see FIG. 4), and the result was applied to the following experiment. […]

## C1CC2OC2CC1C1CO1 (stereo not shown) [VCD, 4-vinylcyclohexene diepoxide]
  pIC50: 2.82
